Experimental findings from US11752166B2, “Combination therapy for treatment of HCV” (COCRYSTAL PHARMA, INC., priority 2018, dated 2023) are described below.

In this assay the test system is HCV GT1b (Con1, HCV-1b) replicon. Description: HCV GT1b replicon 2-drug combination assay (firefly luciferase, MacSynergy II). The assay is classed as cell-based, Hepatitis C virus. Set-up: Synergy volume / Antagonism volume: unit not given here. Particulars: for Antagonism volume / Synergy volume: 3 days, 0.125-8x EC50. As to the method:
Materials: Cells—The HCV GT1b (Con1, HCV-1b) replicon cells were generated and provided by WuXi AppTec. The HCV-1b replicon cells are Huh7 cells stably transfected with the HCV GT1b replicon containing the HCV subgenome, resistance selection gene NEO and reporter gene firefly luciferase.
Software—HCV replicon data was analyzed using MacSynergy™ II software.
Methods: This study was to assess combination effects of the Compound A with other HCV antivirals on HCV replicon replication in the HCV GT1b replicon assay.
The 2-drug combination experiment was designed using a checkboard cross pattern of 7 drug concentrations of each agent, including each agent alone, in triplicate, plated with the Automated Liquid Workstation (Labcyte, Echo555). The concentrations of the test compounds were 0.125, 0.25, 0.5, 1, 2, 4, 8× EC50 values. The EC50 values of the test compounds were determined in a separate HCV GT1b replicon assay. The regimens of the compound combinations are listed in Table 1—where each regimen includes Compound A as the first compound. The final concentration of DMSO in the cell culture medium was 0.5%.
The HCV-1b cells were seeded at a density of 8,000 cells per well in 96-well plates and cultured in DMEM containing 10% FBS at 5% CO2 and 37° C. The replicon cells were treated with the compounds for 3 days.
The antiviral activity of the compounds was determined by monitoring activity of the replicon reporter firefly luciferase using Bright Glo in accordance with the protocol provided by the supplier. The combination indices were calculated using the MacSynergy™ II software. A positive combination index value indicates synergism, and a negative combination index value indicates antagonism.
(In antiviral work, replicon cells carry a viral genome segment that copies itself.)

Where [1] appears, read: 2nd inhibitor (NS3 protease inhibitor table, incl. ribavirin) in combination with Compound A.
Setting [2] is: 2nd inhibitor (NS5B nucleoside inhibitor) in combination with Compound A.
Setting [3] is: 2nd inhibitor (NS5A inhibitor) in combination with Compound A.

Consider `C=C[C@@H]1C[C@]1(NC(=O)[C@@H]1C[C@@H](Oc2ncc(OC)c3ccc(Cl)cc23)CN1C(=O)[C@@H](NC(=O)OC(C)(C)C)C(C)(C)C)C(=O)NS(=O)(=O)C1CC1` [Asunaprevir], for which, under setting [1], the Combination regimen effect result is recorded as “Additive”, the Antagonism volume is on record as −1.32 and the Synergy volume is recorded as 4.9.
Take `CNC(=O)c1c(-c2ccc(F)cc2)oc2cc(N(CCCCCOCc3ccc(C(=O)O)cc3)S(C)(=O)=O)c(C3CC3)cc12` [Compound A]: under “with HCV NS5B nucleoside inhibitors, NS5A inhibitors, NS3 protease inhibitors, NS3 helicase inhibitors, and ribavirin”, the Combination effect result was “either additive or synergistic effect”.
On to `CC(C)OC(=O)[C@@H](C)NP(=O)(OC[C@@H]1O[C@H](n2ccc(NO)nc2=O)[C@@](C)(O)[C@H]1O)Oc1ccccc1` (stereo partly drawn) [Compound B], for which, under setting [2], the Combination regimen effect result is recorded as “Additive”, the Antagonism volume is listed as 0.00 and the Synergy volume is on record as 3.30.
For the compound `COC(=O)N[C@H](C(=O)N1C[C@H](SC)C[C@@H]1c1ncc(-c2ccc(-c3ccc(-c4[nH]c([C@@H]5CCCN5C(=O)[C@@H](NC(=O)OC)c5ccccc5)nc4Cl)cc3)cc2)[nH]1)c1ccccc1` [Compound C], under setting [3], the Combination regimen effect result is recorded as “Additive”, the Antagonism volume is recorded as 0 and the Synergy volume is given as 3.57.
For `COC(=O)N[C@H](C(=O)N1CCC[C@H]1c1nc(-c2ccc(-c3ccc(-c4c[nH]c([C@@H]5CCCN5C(=O)[C@@H](NC(=O)OC)C(C)C)n4)cc3)cc2)c[nH]1)C(C)C` [Daclatasvir], under setting [3], the Antagonism volume is −3.05 and the Synergy volume stood at 33.47.
For `CC(C)(C)[C@@H]1NC(=O)O[C@@H]2CCC[C@H]2OC/C=C/C(F)(F)c2nc3ccccc3nc2O[C@@H]2C[C@@H](C(=O)N[C@]3(C(=O)NS(=O)(=O)C4(C)CC4)C[C@H]3C(F)F)N(C2)C1=O` [Glecaprevir], under setting [1], the Combination regimen effect entry is listed as “Minor synergism”, the Antagonism volume worked out at 0.00 and the Synergy volume was 47.37.
In the case of `COC(=O)N[C@H](C(=O)N1CC2(CC2)C[C@H]1c1nc(-c2ccc3c(c2)C(F)(F)c2cc(-c4ccc5[nH]c([C@@H]6[C@H]7CC[C@H](C7)N6C(=O)[C@@H](NC(=O)OC)C(C)C)nc5c4)ccc2-3)c[nH]1)C(C)C` [Ledipasvir], under setting [3], the Combination regimen effect entry is on record as “Minor synergy”, the Antagonism volume is listed as −1.08 and the Synergy volume is recorded as 38.55.
With `COC(=O)N[C@H](C(=O)N1CCC[C@H]1c1nc2cc([C@H]3CC[C@H](c4cc5nc([C@@H]6CCCN6C(=O)[C@@H](NC(=O)OC)[C@@H](C)OC)[nH]c5cc4F)N3c3cc(F)c(N4CCC(c5ccc(F)cc5)CC4)c(F)c3)c(F)cc2[nH]1)[C@@H](C)OC` [Pibrentasvir], under setting [3], the Combination regimen effect result is reported as “Additive”, the Antagonism volume is −24.59 and the Synergy volume is 5.7.
Regarding `NC(=O)c1ncn([C@@H]2O[C@H](CO)[C@@H](O)[C@H]2O)n1` [Ribavirin], under setting [1], the Combination regimen effect result was “Additive”, the Antagonism volume is −9.76 and the Synergy volume came out at 0.24.
Take `COc1ccc2c(O[C@@H]3C[C@H]4C(=O)N[C@]5(C(=O)NS(=O)(=O)C6CC6)C[C@H]5/C=C\CCCCN(C)C(=O)[C@@H]4C3)cc(-c3nc(C(C)C)cs3)nc2c1C` [Simprevir, Simeprevir]: under setting [1], the Combination regimen effect entry is “Additive”, the Antagonism volume came out at 0.00 and the Synergy volume was determined as 13.39.
Take `CC(C)OC(=O)[C@H](C)N[P@](=O)(OC[C@H]1O[C@@H](n2ccc(=O)[nH]c2=O)[C@](C)(F)[C@@H]1O)Oc1ccccc1` [Sofosbuvir]: under setting [2], the Combination regimen effect entry is listed as “Additive”, the Antagonism volume is recorded as 0.00 and the Synergy volume turned out to be 9.47.
For the compound `COC[C@H]1C[C@@H](c2nc(-c3ccc4c(c3)COc3cc5c(ccc6nc([C@@H]7CC[C@H](C)N7C(=O)[C@@H](NC(=O)OC)C(C)C)[nH]c65)cc3-4)c[nH]2)N(C(=O)[C@H](NC(=O)OC)c2ccccc2)C1` [Velpatasvir], under setting [3], the Combination regimen effect entry was “Additive”, the Antagonism volume was −7.92 and the Synergy volume is recorded as 0.76.
